This assay can be described thus: healing test: topical 4-hydroxy-androstenedione cream applied to the breasts of patients with mastalgia. It counts as in vivo, human. From the text: Treatments acting with 4-hydroxy-androstenedione for mastalgia syndrome are described, wherein instead of 4-hydroxy-androstenedione, other aromatase inhibitors may be used.
Findings: Tension-related pains in both breasts occurring 3 to 5 days before each menstruation, apparently bundled shooting into the breast nipples. Then slowly decreasing pains, symptoms and signs and tension states during the menstruation period until about the 10th day after onset of menstruation.
A cream treated with 0.5 wt. % of 4-hydroxy-androstenedione was used (0.5% of 4OH-androstenedione introduced into 100 ml of ash-based cream). 4 g were administered daily, and specifically 2 g applied externally to each breast and carefully massaged in.
Start of healing test about 3 weeks before the period.
Continuation of the healing test with daily administration of 4-OH-androstenedione cream 0.5% strength.
Findings: For years, severe swelling and tension feeling occurring in each case 3-5 days before menstruation with diffuse pain symptoms and signs radiating into the thorax, which is almost unbearable until the onset of menstruation. For years, unable to work 1-3 days per month due to these pains. Disappearance of symptoms and signs only on 8th-12th day after onset of menstruation.
Healing test using 1% strength 4-OH-androstenedione cream (1 g of 4-OH-androstenedione introduced into 100 ml of ash-based cream).
Dose 1×daily 4 g, in each case 2 g applied to each breast.
The start of the healing test took place about 2 weeks before onset of menstruation.
Continuation of the healing test using 0.5% strength 4-OH-androstenedione cream (0.5 g of 4-OH-androstenedione introduced into 100 ml of ash-based cream) 4 g daily, that is 2 g applied to each breast.

Setting [1] is: Example 2, 1% strength cream, 1x daily 4 g, subsequent period 2.
Where [2] appears, read: Example 2, continuation with 0.5% strength cream, 4 g daily, subsequent periods.

Each structure is given as a SMILES string.

Take `C[C@]12CCC(=O)C(O)=C1CC[C@@H]1[C@@H]2CC[C@]2(C)C(=O)CC[C@@H]12` [4-hydroxy-androstenedione, 4-hydroxyandrostenedione]: the tension pain entry (Example 1, person, 0.5 wt. % cream, 4 g daily (2 g each breast), first subsequent period) is “Significantly reduced tension pain”. Also, the pain result (Example 1, 0.5% strength cream daily, second subsequent period) is listed as “complete freedom from pain”. Besides, the “course of symptoms and signs” value (Example 1, 0.5 wt. % cream, 4 g daily, first subsequent period) is “symptoms and signs subsided more rapidly”. Besides, where the note is “Example 1, 0.5 wt. % cream, 4 g daily, first subsequent period (before treatment until about the 10th day)”, the “time to pain-free after start of menstruation” value came out at 5 days. In addition, for the setting “Example 2, person, 1% strength cream, 1x daily 4 g, subsequent period 1”, the course of mastalgia entry is “somewhat blander course”. The inability to work (Example 2, 1% strength cream, 1x daily 4 g, subsequent period 1 (before treatment 1-3 days per month)) is 1 days. Also, under setting [1], the inability to work entry was “no inability to work”; the “pain symptoms and signs” value is “considerably lower pain symptoms and signs”; the “swelling and tension feeling” value is “Significantly lower swelling and tension feeling”. Also, under setting [2], the “mastopathy-related inability to work” value is on record as “no mastopathy-related inability to work”; the pain result is on record as “practically pain-free”; the “swelling and tension feelings” value was “Hardly any swelling and tension feelings”.

These data come from patent US20040018991A1, “Topical treatment for mastalgia” (priority 2000, published 2004).
